According to ChEMBL document CHEMBL1135198, “Structure-activity relationships of non-imidazole H(3) receptor ligands. Part 1” (Bioorg Med Chem Lett, 2002):

Tests used:
Histamine H3 receptor = Histamine H3 receptor (Rattus norvegicus, UniProt Q9QYN8); experiment: Binding affinity for the rat cortical Histamine H3 receptor
Histamine H2 receptor = Histamine H2 receptor (Homo sapiens, UniProt P25021); experiment: Binding affinity for the human Histamine H2 receptor
Histamine H1 receptor = Histamine H1 receptor (Homo sapiens, UniProt P35367); experiment: Binding affinity for the human Histamine H1 Receptor
Chain of Histamine H1 receptor (P35367 whole entry): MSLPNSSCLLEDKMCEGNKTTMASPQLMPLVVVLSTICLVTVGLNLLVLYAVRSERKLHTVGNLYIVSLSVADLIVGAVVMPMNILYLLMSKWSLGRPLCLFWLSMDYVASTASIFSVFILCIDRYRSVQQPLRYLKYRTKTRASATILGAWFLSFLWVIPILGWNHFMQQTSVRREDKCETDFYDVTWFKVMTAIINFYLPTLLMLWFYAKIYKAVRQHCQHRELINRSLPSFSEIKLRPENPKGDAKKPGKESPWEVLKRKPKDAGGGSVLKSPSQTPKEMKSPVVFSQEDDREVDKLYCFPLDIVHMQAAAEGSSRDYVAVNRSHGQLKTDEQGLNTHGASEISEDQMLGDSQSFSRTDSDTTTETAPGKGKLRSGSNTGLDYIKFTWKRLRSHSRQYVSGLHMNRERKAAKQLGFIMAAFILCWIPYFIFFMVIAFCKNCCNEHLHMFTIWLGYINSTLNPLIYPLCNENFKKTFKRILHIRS

Chain of Histamine H2 receptor (P25021 whole entry): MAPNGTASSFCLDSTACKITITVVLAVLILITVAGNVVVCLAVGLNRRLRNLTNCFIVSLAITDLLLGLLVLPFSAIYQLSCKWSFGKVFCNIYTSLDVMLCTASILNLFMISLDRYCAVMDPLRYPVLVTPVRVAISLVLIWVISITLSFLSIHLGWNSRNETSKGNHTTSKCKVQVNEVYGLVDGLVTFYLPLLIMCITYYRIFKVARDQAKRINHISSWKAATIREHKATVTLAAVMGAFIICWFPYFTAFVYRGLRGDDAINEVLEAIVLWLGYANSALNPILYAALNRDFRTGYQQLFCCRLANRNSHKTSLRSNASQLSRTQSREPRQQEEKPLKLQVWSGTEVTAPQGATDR
Chain of Histamine H3 receptor (Q9QYN8 whole entry): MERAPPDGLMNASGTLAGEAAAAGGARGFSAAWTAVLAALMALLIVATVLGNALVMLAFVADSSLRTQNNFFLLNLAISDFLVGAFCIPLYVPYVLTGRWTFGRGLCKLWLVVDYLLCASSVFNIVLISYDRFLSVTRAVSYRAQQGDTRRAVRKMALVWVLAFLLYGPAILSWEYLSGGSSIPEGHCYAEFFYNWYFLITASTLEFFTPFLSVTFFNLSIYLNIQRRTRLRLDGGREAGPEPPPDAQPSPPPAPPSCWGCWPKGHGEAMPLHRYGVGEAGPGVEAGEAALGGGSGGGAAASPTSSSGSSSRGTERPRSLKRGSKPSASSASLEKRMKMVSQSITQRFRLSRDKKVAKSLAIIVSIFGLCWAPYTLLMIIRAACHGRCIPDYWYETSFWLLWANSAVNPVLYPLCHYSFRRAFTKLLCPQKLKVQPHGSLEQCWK

CCOC(=O)N1CCN(CCCOc2ccc(C(=O)c3ccc(SC)cc3)cc2)CC1
Ki (Histamine H3 receptor): 0.0589 µM | Ki (Histamine H2 receptor): 6.17 µM | Ki (Histamine H1 receptor): 0.447 µM

C=C(C)C(=O)c1ccc(OCCCN2CCN(C(=O)OCC)CC2)cc1
Ki (Histamine H3 receptor): 0.055 µM | Ki (Histamine H2 receptor): 22.4 µM | Ki (Histamine H1 receptor): 0.977 µM

CCCCCC(=O)c1ccc(OCCCN2CCN(C(=O)c3ccncc3)CC2)cc1
Ki (Histamine H3 receptor): 0.00631 µM | Ki (Histamine H2 receptor): 22.4 µM | Ki (Histamine H1 receptor): 0.479 µM

CCCCCC(=O)c1ccc(OCCCN2CCN(C(=O)c3sccc3Cl)CC2)cc1
Ki (Histamine H3 receptor): 0.0295 µM | Ki (Histamine H2 receptor): 19.5 µM | Ki (Histamine H1 receptor): 0.0794 µM

CCOC(=O)N1CCN(CCCOc2ccc(C(=O)/C=C/c3ccc(OC)cc3)cc2)CC1
Ki (Histamine H3 receptor): 0.00724 µM | Ki (Histamine H2 receptor): 6.76 µM | Ki (Histamine H1 receptor): 0.617 µM

CCCCCC(=O)c1ccc(OCCCN2CCN(C(=O)C(C)(C)O)CC2)cc1
Ki (Histamine H3 receptor): 0.0575 µM | Ki (Histamine H2 receptor): 24.5 µM | Ki (Histamine H1 receptor): 21.4 µM

CCCCCC(=O)c1ccc(OCCCN2CCN(C(=O)CC)CC2)cc1
Ki (Histamine H3 receptor): 0.00316 µM | Ki (Histamine H2 receptor): 31.6 µM | Ki (Histamine H1 receptor): 1.91 µM

CCCCCC(=O)c1ccc(OCCCN2CCN(C(=O)c3ccccc3)CC2)cc1
Ki (Histamine H3 receptor): 0.0363 µM | Ki (Histamine H2 receptor): 12.3 µM | Ki (Histamine H1 receptor): 0.288 µM

CCCCCC(=O)c1ccc(OCCCN2CCNCC2)cc1
Ki (Histamine H3 receptor): 0.0269 µM | Ki (Histamine H2 receptor): 14.5 µM | Ki (Histamine H1 receptor): 6.03 µM

CCCCCC(=O)c1ccc(OCCCN2CCN(C(=O)C3CC3)CC2)cc1
Ki (Histamine H3 receptor): 0.00214 µM | Ki (Histamine H2 receptor): 31.6 µM | Ki (Histamine H1 receptor): 1.78 µM

CCOC(=O)N1CCN(CCCOc2ccc(C(=O)c3cccc(F)c3F)cc2)CC1
Ki (Histamine H3 receptor): 0.0251 µM | Ki (Histamine H2 receptor): 17.4 µM | Ki (Histamine H1 receptor): 1.02 µM

CCCC(=O)c1ccc(OCCCN2CCN(C(=O)OCC)CC2)cc1
Ki (Histamine H3 receptor): 0.00363 µM | Ki (Histamine H2 receptor): 22.4 µM | Ki (Histamine H1 receptor): 0.741 µM

CCOC(=O)N1CCN(CCCOc2ccc(C(=O)C=C(C)C)cc2)CC1
Ki (Histamine H3 receptor): 0.0389 µM | Ki (Histamine H2 receptor): 21.9 µM | Ki (Histamine H1 receptor): 0.355 µM

CCCCCC(=O)c1ccc(OCCCN2CCN(C(=O)Cc3ccccc3)CC2)cc1
Ki (Histamine H3 receptor): 0.01 µM | Ki (Histamine H2 receptor): 8.91 µM | Ki (Histamine H1 receptor): 0.0562 µM

CCCCCC(=O)c1ccc(OCCCN2CCN(C(=O)c3cccnc3)CC2)cc1
Ki (Histamine H3 receptor): 0.0204 µM | Ki (Histamine H2 receptor): 60.3 µM | Ki (Histamine H1 receptor): 0.724 µM

CCOC(=O)N1CCN(CCCOc2ccc(C(=O)c3ccc(OC)cc3)cc2)CC1
Ki (Histamine H3 receptor): 0.0398 µM | Ki (Histamine H2 receptor): 8.32 µM | Ki (Histamine H1 receptor): 0.813 µM

CCCCCC(=O)c1ccc(OCCCN2CCN(S(C)(=O)=O)CC2)cc1
Ki (Histamine H3 receptor): 0.0214 µM | Ki (Histamine H2 receptor): 83.2 µM | Ki (Histamine H1 receptor): 26.3 µM

CCCCCC(=O)c1ccc(OCCCN2CCN(CCC)CC2)cc1
Ki (Histamine H3 receptor): 0.0275 µM | Ki (Histamine H2 receptor): 27.5 µM | Ki (Histamine H1 receptor): 3.39 µM

CCOC(=O)N1CCN(CCCOc2ccc(C(=O)c3ccc(F)cc3)cc2)CC1
Ki (Histamine H3 receptor): 0.0676 µM | Ki (Histamine H2 receptor): 42.7 µM | Ki (Histamine H1 receptor): 0.209 µM

CCOC(=O)N1CCN(CCCOc2ccc(C(=O)/C=C/c3cccnc3)cc2)CC1
Ki (Histamine H3 receptor): 0.00631 µM | Ki (Histamine H2 receptor): 25.1 µM | Ki (Histamine H1 receptor): 0.427 µM

CCCCCCCC(=O)c1ccc(OCCCN2CCN(C(=O)OCC)CC2)cc1
Ki (Histamine H3 receptor): 0.00372 µM | Ki (Histamine H2 receptor): 2.14 µM | Ki (Histamine H1 receptor): 0.562 µM

CCCCCC(=O)c1ccc(OCCCN2CCN(C(=O)c3c[nH]cn3)CC2)cc1
Ki (Histamine H3 receptor): 0.00447 µM | Ki (Histamine H2 receptor): 19.5 µM | Ki (Histamine H1 receptor): 0.525 µM

CCCCCC(=O)c1ccc(OCCCN2CCN(CC(C)C)CC2)cc1
Ki (Histamine H3 receptor): 0.00933 µM | Ki (Histamine H2 receptor): 9.55 µM | Ki (Histamine H1 receptor): 0.457 µM

CCCCCC(=O)c1ccc(OCCCN2CCN(Cc3nccs3)CC2)cc1
Ki (Histamine H3 receptor): 0.0166 µM | Ki (Histamine H2 receptor): 7.08 µM | Ki (Histamine H1 receptor): 0.0603 µM

CCCCCC(=O)c1ccc(OCCCN2CCN(C(=O)c3ccc(C)s3)CC2)cc1
Ki (Histamine H3 receptor): 0.0158 µM | Ki (Histamine H2 receptor): 8.13 µM | Ki (Histamine H1 receptor): 0.0977 µM

CCCCCC(=O)c1ccc(OCCCN2CCN(C(=O)c3cnco3)CC2)cc1
Ki (Histamine H3 receptor): 0.0447 µM | Ki (Histamine H2 receptor): 27.5 µM | Ki (Histamine H1 receptor): 4.27 µM

CCCCCC(=O)c1ccc(OCCCN2CCN(C(=O)NCC)CC2)cc1
Ki (Histamine H3 receptor): 0.0214 µM | Ki (Histamine H2 receptor): 23.4 µM | Ki (Histamine H1 receptor): 1.58 µM

CCOC(=O)N1CCN(CCCOc2ccc(C(=O)C3CCCCC3)cc2)CC1
Ki (Histamine H3 receptor): 0.0251 µM | Ki (Histamine H2 receptor): 7.94 µM | Ki (Histamine H1 receptor): 0.603 µM

CCOC(=O)N1CCN(CCCOc2ccc(C(=O)CC(C)C)cc2)CC1
Ki (Histamine H3 receptor): 0.00724 µM | Ki (Histamine H2 receptor): 69.2 µM | Ki (Histamine H1 receptor): 0.933 µM

CCCCCC(=O)c1ccc(OCCCN2CCN(C(=O)c3occc3C)CC2)cc1
Ki (Histamine H3 receptor): 0.00851 µM | Ki (Histamine H2 receptor): 12.9 µM | Ki (Histamine H1 receptor): 0.105 µM

CCOC(=O)N1CCN(CCCOc2ccc(C(=O)CC)cc2)CC1
Ki (Histamine H3 receptor): 0.00537 µM | Ki (Histamine H2 receptor): 56.2 µM | Ki (Histamine H1 receptor): 1.66 µM

CCCCCC(=O)c1ccc(OCCCN2CCN(C(=O)c3cnccn3)CC2)cc1
Ki (Histamine H3 receptor): 0.0182 µM | Ki (Histamine H2 receptor): 46.8 µM | Ki (Histamine H1 receptor): 2.04 µM

CCCCCC(=O)c1ccc(OCCCN2CCN(C(=O)c3ccco3)CC2)cc1
Ki (Histamine H3 receptor): 0.0105 µM | Ki (Histamine H2 receptor): 20 µM | Ki (Histamine H1 receptor): 0.398 µM

CCCCCC(=O)c1ccc(OCCCN2CCN(C(=O)C(C)C)CC2)cc1
Ki (Histamine H2 receptor): 29.5 µM | Ki (Histamine H1 receptor): 3.98 µM

CCCCCC(=O)c1ccc(OCCCN2CCN(C(=O)c3cccs3)CC2)cc1
Ki (Histamine H3 receptor): 0.0162 µM | Ki (Histamine H2 receptor): 14.8 µM | Ki (Histamine H1 receptor): 0.0741 µM

CCCCCC(=O)c1ccc(OCCCN2CCN(C(=O)OCC)CC2)cc1
Ki (Histamine H3 receptor): 0.00138 µM | Ki (Histamine H2 receptor): 12.6 µM | Ki (Histamine H1 receptor): 0.275 µM

CCOC(=O)N1CCN(CCCOc2ccc(C(C)=O)cc2)CC1
Ki (Histamine H3 receptor): 0.00501 µM | Ki (Histamine H2 receptor): 39.8 µM | Ki (Histamine H1 receptor): 2.24 µM

CCOC(=O)N1CCN(CCCOc2ccc(C(=O)C3CC3)cc2)CC1
Ki (Histamine H3 receptor): 0.00468 µM | Ki (Histamine H2 receptor): 79.4 µM | Ki (Histamine H1 receptor): 1.41 µM

CCCCCCCCC(=O)c1ccc(OCCCN2CCN(C(=O)OCC)CC2)cc1
Ki (Histamine H3 receptor): 0.00794 µM | Ki (Histamine H2 receptor): 2.69 µM | Ki (Histamine H1 receptor): 0.501 µM

CCCCCC(=O)c1ccc(OCCCN2CCN(C(=O)c3ccccn3)CC2)cc1
Ki (Histamine H3 receptor): 0.0525 µM | Ki (Histamine H2 receptor): 18.6 µM | Ki (Histamine H1 receptor): 0.417 µM

CCCCCC(=O)c1ccc(OCCCN2CCN(S(=O)(=O)C(C)C)CC2)cc1
Ki (Histamine H3 receptor): 0.0126 µM | Ki (Histamine H2 receptor): 20.9 µM | Ki (Histamine H1 receptor): 11.2 µM

CCCCCC(=O)c1ccc(OCCCN2CCN(S(=O)(=O)c3ccc(C#N)cc3)CC2)cc1
Ki (Histamine H3 receptor): 0.0372 µM | Ki (Histamine H2 receptor): 12.3 µM | Ki (Histamine H1 receptor): 13.5 µM

CCOC(=O)N1CCN(CCCOc2ccc(C(=O)c3cccc(C)c3)cc2)CC1
Ki (Histamine H3 receptor): 0.288 µM | Ki (Histamine H2 receptor): 3.72 µM | Ki (Histamine H1 receptor): 0.38 µM

CCCCCC(=O)c1ccc(OCCCN2CCN(C(=O)C3CCC3)CC2)cc1
Ki (Histamine H3 receptor): 0.00316 µM | Ki (Histamine H2 receptor): 10.2 µM | Ki (Histamine H1 receptor): 0.355 µM

CCCCCC(=O)c1ccc(OCCCN2CCN(C(=O)CSCC)CC2)cc1
Ki (Histamine H3 receptor): 0.011 µM | Ki (Histamine H2 receptor): 22.9 µM | Ki (Histamine H1 receptor): 1.1 µM

CCOC(=O)N1CCN(CCCOc2ccc(C(=O)c3ccc(C(C)(C)C)cc3)cc2)CC1
Ki (Histamine H3 receptor): 0.0132 µM | Ki (Histamine H2 receptor): 1.55 µM | Ki (Histamine H1 receptor): 0.562 µM

CCCCCC(=O)c1ccc(OCCCN2CCN(CC3CC3)CC2)cc1
Ki (Histamine H3 receptor): 0.0158 µM | Ki (Histamine H2 receptor): 18.6 µM | Ki (Histamine H1 receptor): 2.24 µM

CCCCCC(=O)c1ccc(OCCCN2CCN(C(=O)OC(C)C)CC2)cc1
Ki (Histamine H3 receptor): 0.00501 µM | Ki (Histamine H2 receptor): 17.8 µM | Ki (Histamine H1 receptor): 0.309 µM

CCCCCC(=O)c1ccc(OCCCN2CCN(C(=O)OCCCC)CC2)cc1
Ki (Histamine H3 receptor): 0.0204 µM | Ki (Histamine H2 receptor): 1.86 µM | Ki (Histamine H1 receptor): 0.575 µM

CCCCCC(=O)c1ccc(OCCCN2CCN(CCCC)CC2)cc1
Ki (Histamine H3 receptor): 0.0135 µM | Ki (Histamine H2 receptor): 7.59 µM | Ki (Histamine H1 receptor): 0.661 µM

CCCCCC(=O)c1ccc(OCCCN2CCN(C(=O)OC)CC2)cc1
Ki (Histamine H3 receptor): 0.00302 µM | Ki (Histamine H2 receptor): 12 µM | Ki (Histamine H1 receptor): 1.07 µM

CCCCCC(=O)c1ccc(OCCCN2CCN(C(=O)CCC)CC2)cc1
Ki (Histamine H3 receptor): 0.00646 µM | Ki (Histamine H2 receptor): 22.9 µM | Ki (Histamine H1 receptor): 0.871 µM

CCCCCC(=O)c1ccc(OCCCC2CCNCC2)cc1
Ki (Histamine H3 receptor): 58.9 µM

CCCCCC(=O)c1ccc(OCCCN2CCCCC2)cc1
Ki (Histamine H3 receptor): 0.0631 µM

CCCCCC(=O)c1ccc(OCCCN2CCN(C(=O)N3CCCC3)CC2)cc1
Ki (Histamine H3 receptor): 0.00741 µM | Ki (Histamine H2 receptor): 14.8 µM | Ki (Histamine H1 receptor): 1.05 µM

CCCCCC(=O)c1ccc(OCCCN2CCN(C(=O)NC(C)C)CC2)cc1
Ki (Histamine H3 receptor): 0.00955 µM | Ki (Histamine H2 receptor): 11.2 µM | Ki (Histamine H1 receptor): 1.2 µM

CCCCCC(=O)c1ccc(OCCCN2CCN(C(=O)OCC(C)C)CC2)cc1
Ki (Histamine H3 receptor): 0.01 µM | Ki (Histamine H2 receptor): 3.72 µM | Ki (Histamine H1 receptor): 0.275 µM

CCOC(=O)N1CCN(CCCOc2ccc(C(=O)Cc3ccccc3)cc2)CC1
Ki (Histamine H3 receptor): 0.0692 µM | Ki (Histamine H2 receptor): 12.6 µM | Ki (Histamine H1 receptor): 0.933 µM

CCCCCC(=O)c1ccc(OCCCN2CCN(C(=O)c3cccn3C)CC2)cc1
Ki (Histamine H3 receptor): 0.00407 µM | Ki (Histamine H2 receptor): 11.7 µM | Ki (Histamine H1 receptor): 0.0562 µM

CCCCCC(=O)c1ccc(OCCCN2CCN(C(=O)N3CCOCC3)CC2)cc1
Ki (Histamine H3 receptor): 0.00589 µM | Ki (Histamine H2 receptor): 17.8 µM | Ki (Histamine H1 receptor): 4.17 µM
